Test results from ChEMBL document CHEMBL1201862, “PubChem BioAssay data set” (2004).
Active and inactive are the calls of the source.

Key:
[1] = molecular target: T1, Histone-lysine N-methyltransferase NSD2 (Homo sapiens, UniProt O96028); type: biochemical
T1 sequence (O96028 whole entry): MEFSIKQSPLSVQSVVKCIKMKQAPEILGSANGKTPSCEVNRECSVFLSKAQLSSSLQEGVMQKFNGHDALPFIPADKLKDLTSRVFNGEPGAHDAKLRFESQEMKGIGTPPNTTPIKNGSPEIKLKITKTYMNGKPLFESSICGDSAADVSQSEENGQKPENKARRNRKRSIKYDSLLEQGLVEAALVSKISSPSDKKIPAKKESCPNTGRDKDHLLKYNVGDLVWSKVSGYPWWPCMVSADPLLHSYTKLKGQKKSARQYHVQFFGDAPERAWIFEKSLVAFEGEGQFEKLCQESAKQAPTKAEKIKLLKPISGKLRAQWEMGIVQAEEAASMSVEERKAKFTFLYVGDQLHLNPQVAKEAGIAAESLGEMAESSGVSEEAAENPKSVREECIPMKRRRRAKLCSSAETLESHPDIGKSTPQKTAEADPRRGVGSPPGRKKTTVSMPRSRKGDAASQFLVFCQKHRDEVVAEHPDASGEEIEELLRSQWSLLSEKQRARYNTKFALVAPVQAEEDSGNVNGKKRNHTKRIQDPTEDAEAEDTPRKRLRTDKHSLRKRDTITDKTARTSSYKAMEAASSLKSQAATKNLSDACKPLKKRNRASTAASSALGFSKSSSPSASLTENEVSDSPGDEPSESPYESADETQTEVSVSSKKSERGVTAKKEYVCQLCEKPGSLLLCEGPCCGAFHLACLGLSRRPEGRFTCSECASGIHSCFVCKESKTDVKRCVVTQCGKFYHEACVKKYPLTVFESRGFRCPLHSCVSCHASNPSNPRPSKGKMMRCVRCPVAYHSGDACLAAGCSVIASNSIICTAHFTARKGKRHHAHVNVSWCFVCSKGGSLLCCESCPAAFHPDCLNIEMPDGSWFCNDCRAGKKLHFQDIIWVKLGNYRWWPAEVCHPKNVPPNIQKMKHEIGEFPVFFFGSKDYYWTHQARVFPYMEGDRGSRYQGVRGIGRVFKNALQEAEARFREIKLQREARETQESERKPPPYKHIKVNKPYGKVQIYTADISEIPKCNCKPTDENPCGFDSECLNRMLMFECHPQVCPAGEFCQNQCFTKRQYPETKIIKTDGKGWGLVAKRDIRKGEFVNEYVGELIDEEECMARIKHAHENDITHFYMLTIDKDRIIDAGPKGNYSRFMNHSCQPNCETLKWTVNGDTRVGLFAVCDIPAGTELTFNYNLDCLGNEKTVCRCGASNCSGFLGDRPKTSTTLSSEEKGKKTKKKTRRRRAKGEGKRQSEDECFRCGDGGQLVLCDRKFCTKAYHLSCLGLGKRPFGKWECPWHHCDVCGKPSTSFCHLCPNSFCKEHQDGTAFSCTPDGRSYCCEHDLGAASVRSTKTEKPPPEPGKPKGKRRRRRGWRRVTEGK

[2] = molecular target: T2, Apoptotic protease-activating factor 1 (Homo sapiens, UniProt O14727); type: functional
T2 sequence (O14727 whole entry): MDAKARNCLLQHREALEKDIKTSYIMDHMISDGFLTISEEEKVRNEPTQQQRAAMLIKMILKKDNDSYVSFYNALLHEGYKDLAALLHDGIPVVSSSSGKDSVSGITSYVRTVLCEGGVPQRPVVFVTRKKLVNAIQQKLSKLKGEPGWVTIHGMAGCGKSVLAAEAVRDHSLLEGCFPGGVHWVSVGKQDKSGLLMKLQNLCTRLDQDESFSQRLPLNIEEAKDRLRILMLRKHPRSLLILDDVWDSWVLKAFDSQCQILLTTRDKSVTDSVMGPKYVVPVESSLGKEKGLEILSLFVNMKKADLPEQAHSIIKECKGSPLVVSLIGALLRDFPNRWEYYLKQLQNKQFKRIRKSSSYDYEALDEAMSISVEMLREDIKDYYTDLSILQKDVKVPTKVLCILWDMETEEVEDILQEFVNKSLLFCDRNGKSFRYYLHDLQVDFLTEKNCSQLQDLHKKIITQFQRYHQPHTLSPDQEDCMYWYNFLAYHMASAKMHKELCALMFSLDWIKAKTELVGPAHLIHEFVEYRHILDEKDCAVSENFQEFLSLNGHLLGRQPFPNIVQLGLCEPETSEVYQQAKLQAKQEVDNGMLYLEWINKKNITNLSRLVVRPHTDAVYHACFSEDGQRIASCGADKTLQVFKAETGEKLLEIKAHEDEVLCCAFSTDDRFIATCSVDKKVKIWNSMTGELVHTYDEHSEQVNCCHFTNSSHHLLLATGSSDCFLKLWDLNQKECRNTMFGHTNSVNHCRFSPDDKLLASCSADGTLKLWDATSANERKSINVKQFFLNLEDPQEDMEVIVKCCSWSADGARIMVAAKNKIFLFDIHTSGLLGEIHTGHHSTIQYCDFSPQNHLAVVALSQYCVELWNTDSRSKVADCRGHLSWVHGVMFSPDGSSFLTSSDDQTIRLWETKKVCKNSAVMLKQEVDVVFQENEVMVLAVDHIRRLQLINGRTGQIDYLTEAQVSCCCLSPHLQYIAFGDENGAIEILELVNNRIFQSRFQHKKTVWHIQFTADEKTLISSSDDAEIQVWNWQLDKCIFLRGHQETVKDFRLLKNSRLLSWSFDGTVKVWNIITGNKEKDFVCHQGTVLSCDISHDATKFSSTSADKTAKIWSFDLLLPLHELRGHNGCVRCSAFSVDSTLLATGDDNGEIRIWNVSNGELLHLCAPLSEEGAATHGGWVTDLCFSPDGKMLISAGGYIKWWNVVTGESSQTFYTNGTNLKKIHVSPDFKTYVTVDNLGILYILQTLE

Row | Compound | AC50 [1] | IC50 [2]
1 | COC(=O)c1cccc(-c2ccc(C(c3c(C)n[nH]c3O)c3c(C)n[nH]c3O)o2)c1 | > 20 µM (inactive) | –
2 | Cc1ccc(C(=O)NNc2cc(N3CCCC3)nc(N3CCCC3)n2)cc1 | – | 5.08 µM (active)
3 | O=C1/C(=N\c2cccc(O)c2)C(N2CCCCC2)=C(O)c2ccccc21 | 8.12 µM (active) | 4.03 µM (active)
